# Laboratory results as given in patent US9403843B2, “Cysteine protease inhibitors and uses thereof” (The Trustees of Columbia University in the City of New York, priority 2012, dated 2016).
# Entries after “also recorded” stand apart in the source; their conditions may differ. Like-named read-outs stand apart in the source and are kept apart here.
# Legend:
# [1] = target: T1, full-length human Cal1 (Homo sapiens (Human), UniProt P07384); experiment: Calpain inhibition FRET assay; format: biochemical; settings: for IC50: Table 2, approximate IC50, read-out: Cal I IC50
# Method: Calpain activity was measured using full-length human Cal1 in the presence of a FRET substrate. IC50 values were approximated by co-incubation of varying concentrations of the appropriate inhibitor (10, 100, 500, 1000 nM) in the presence of the FRET substrate (DABCYL)TPLK-SPPSPR-(EDANS) (SEQ ID NO: 5) and activation buffer. […] A peptide inhibitor, Z-LLY-FMK (SEQ ID NO: 6), was used as a positive control.
# The Calbiochem InnoZyme activity kit was used for measuring the inhibition effect inhibitors on human erythrocyte calpain 1 activity. […] 20 μM of the FRET substrate, 10 nM of native Cal1, and 20 μM TCEP (reducing agent) were added to the reaction mixture containing assay buffer (Tris [10 mM], NaCl [100 mM], pH 7.4). Cal1 was activated by the addition of 10 μM calcium. Cleavage of the scissile bond amide bond, K-S, releases the fluorophore (EDANS) from the internal quenching molecule (DABCYL), resulting in an increase in fluorescence measured at 320 nm excitation and 480 nm emission wave lengths for 30 min. Each inhibitor was added to the reaction mixture at varying concentrations (10 nM, 100 nM, 1 μM, and 10 μM) to detect inhibition of Cal1 and reduction in fluorescence was measured by 96 well-plate reader. Approximate IC50 values of each compound were generated using linear regression within Graphpad Prism Software.
# [2] = target: T1, full-length human Cal1; experiment: Calpain inhibition FRET assay; format: biochemical; settings: Table 3, 20 min incubation, FRET substrate
# [3] = >1: inhibition not quantifiable at 1 μM
# T1 sequence (P07384 whole entry): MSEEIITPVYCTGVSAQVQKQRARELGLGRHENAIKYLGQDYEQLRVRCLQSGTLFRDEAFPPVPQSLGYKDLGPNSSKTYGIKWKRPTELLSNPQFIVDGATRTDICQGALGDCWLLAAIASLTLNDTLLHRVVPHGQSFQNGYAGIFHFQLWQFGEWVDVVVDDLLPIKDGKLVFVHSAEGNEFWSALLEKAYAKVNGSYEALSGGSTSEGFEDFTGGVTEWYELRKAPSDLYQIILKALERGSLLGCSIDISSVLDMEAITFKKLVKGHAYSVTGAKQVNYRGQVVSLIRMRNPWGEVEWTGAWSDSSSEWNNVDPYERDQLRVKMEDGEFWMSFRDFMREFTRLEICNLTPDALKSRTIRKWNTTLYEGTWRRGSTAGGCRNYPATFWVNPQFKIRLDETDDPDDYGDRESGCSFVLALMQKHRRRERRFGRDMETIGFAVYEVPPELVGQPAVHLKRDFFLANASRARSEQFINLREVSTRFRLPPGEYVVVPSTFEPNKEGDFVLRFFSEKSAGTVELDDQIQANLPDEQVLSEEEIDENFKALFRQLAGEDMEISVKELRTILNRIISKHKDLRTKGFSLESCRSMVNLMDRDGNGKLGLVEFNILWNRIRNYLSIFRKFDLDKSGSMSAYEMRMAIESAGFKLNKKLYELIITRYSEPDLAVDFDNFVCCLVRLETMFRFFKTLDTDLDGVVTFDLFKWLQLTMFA
# T1 sequence (P04632 whole entry partner): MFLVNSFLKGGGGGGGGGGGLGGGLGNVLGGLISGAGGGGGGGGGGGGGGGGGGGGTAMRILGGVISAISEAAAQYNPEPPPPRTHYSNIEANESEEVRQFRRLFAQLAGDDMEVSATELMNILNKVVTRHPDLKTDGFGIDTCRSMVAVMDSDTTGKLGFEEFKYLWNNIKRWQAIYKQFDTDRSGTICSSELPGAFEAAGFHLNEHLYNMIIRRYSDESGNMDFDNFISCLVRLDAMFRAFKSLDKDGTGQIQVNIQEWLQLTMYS
SMILES,IC50 [1],other results
CCOC(=O)[C@@H]1O[C@H]1C(=O)N[C@@H](Cc1cnc[nH]1)C(=O)Nc1nc(-c2ccc(F)cc2)cs1 [Compound 77],> 1 µM,–
"CC(C)C[C@H](NC(=O)[C@@H]1O[C@H]1C(=O)O)C(=O)Nc1c(F)cccc1F [Compound 23b, (2R,3R)-3-((S)-1-(2,6-difluorophenylamino)-4-methyl-1-oxopentan-2-ylcarbamoyl)oxirane-2-carboxylic acid]",> 1 µM,"Cal1 inhibition (in words) [1]: not observed; IC50 [2, 3]: > 1 µM"
CCOC(=O)[C@H]1O[C@@H]1C(=O)N[C@@H](Cc1cnc[nH]1)C(=O)Nc1ccccc1 [Compound 85],> 10 µM,–
"O=C(NCc1cn(-c2ccc3c(c2)OCO3)nn1)[C@H](Cc1cscn1)NC(=O)[C@H]1O[C@@H]1C(=O)O [Compound 52, (2S,3S)-3-((S)-1-((1-(benzo[d][1,3]dioxol-5-yl)-1H-1,2,3-triazol-4-yl)methylamino)-1-oxo-3-(thiazol-4-yl)propan-2-ylcarbamoyl)oxirane-2-carboxylic acid]",0.4 µM,Cal1 inhibition (in words) [1]: potent activity
CCOC(=O)[C@H]1O[C@@H]1C(=O)N[C@@H](Cc1cnc[nH]1)C(=O)Nc1nc(-c2ccc(F)cc2)cs1 [Compound 78],> 1 µM,–
CCOC(=O)[C@H]1O[C@@H]1C(=O)N[C@@H](CC(C)C)C(=O)N(C)c1nc(-c2ccc(F)cc2)cs1 [Compound 71],> 1 µM,–
CCOC(=O)[C@H]1O[C@@H]1C(=O)NCc1ccc(CO)cc1 [Compound 82],> 1 µM,–
"CC(C)C[C@H](NC(=O)[C@H]1O[C@@H]1C(=O)O)C(=O)Nc1ccccc1 [Compound 22, (2S,3S)-3-((S)-4-methyl-1-oxo-1-(phenylamino)pentan-2-ylcarbamoyl)oxirane-2-carboxylic acid]",0.1 µM,–
CCOC(=O)[C@H]1O[C@@H]1C(=O)N[C@@H](CC(C)C)C(=O)Nc1ccccc1 [Compound 84],2.5 µM,–
"Cn1cncc1C[C@H](NC(=O)[C@H]1O[C@@H]1C(=O)O)C(=O)Nc1nc(-c2ccc(F)cc2)cs1 [Compound 35, (2S,3S)-3-((S)-1-(4-(4-fluorophenyl)thiazol-2-ylamino)-3-(1-methyl-1H-imidazol-5-yl)-1-oxopropan-2-ylcarbamoyl)oxirane-2-carboxylic acid]",5 µM,–
CCOC(=O)[C@H]1OC1C(=O)N[C@@H](CC(C)C)C(=O)NCCCCNS(=O)(=O)c1ccc(F)cc1 (stereo partly shown) [Compound 63],> 1 µM,–
"O=C(NCc1cn(-c2cc(C(F)(F)F)cc(C(F)(F)F)c2)nn1)[C@H](Cc1cscn1)NC(=O)[C@H]1O[C@@H]1C(=O)O [Compound 54, (2S,3S)-3-((S)-1-((1-(3,5-bis(trifluoromethyl)phenyl)-1H-1,2,3-triazol-4-yl)methylamino)-1-oxo-3-(thiazol-4-yl)propan-2-ylcarbamoyl)oxirane-2-carboxylic acid]",> 1 µM,"Cal1 inhibition (in words) [1]: relatively high IC50 values; also recorded: weak activity; IC50 [2, 3]: > 1 µM"
"O=C(Nc1nc2ccc(F)cc2s1)[C@H](Cc1c[nH]cn1)NC(=O)[C@H]1O[C@@H]1C(=O)O [Compound 31a, (2S,3S)-3-((S)-1-(6-fluorobenzo[d]thiazol-2-ylamino)-3-(1H-imidazol-4-yl)-1-oxopropan-2-ylcarbamoyl)oxirane-2-carboxylic acid]",0.535 µM,–
"CC(C)C[C@H](NC(=O)[C@H]1O[C@@H]1C(=O)O)C(=O)Nc1c(F)cccc1F [Compound 23a, (2S,3S)-3-((S)-1-(2,6-difluorophenylamino)-4-methyl-1-oxopentan-2-ylcarbamoyl)oxirane-2-carboxylic acid]",0.05 µM,IC50 [2]: 0.1 µM
CC(C)C[C@H](NC(=O)[C@H]1O[C@@H]1C(=O)O)C(=O)NCCCCNS(=O)(=O)c1ccc(F)cc1 [Compound 68],0.1 µM,–
"O=C(NCc1cn(-c2ccccc2)nn1)[C@H](Cc1cscn1)NC(=O)[C@H]1O[C@@H]1C(=O)O [Compound 49, (2S,3S)-3-((S)-1-oxo-1-((1-phenyl-1H-1,2,3-triazol-4-yl)methylamino)-3-(thiazol-4-yl)propan-2-ylcarbamoyl)oxirane-2-carboxylic acid]",–,"IC50 [2, 3]: 1 µM"
CC(C)C[C@H](NC(=O)[C@H]1O[C@@H]1C(=O)O)C(=O)NCc1cn(-c2ccc(F)cc2)nn1 [Compound 86],0.03 µM,–
C#CCNC(=O)[C@H](CC(C)C)NC(=O)[C@H]1O[C@@H]1C(=O)O [Compound 88],0.275 µM,–
CC(C)C[C@H](NC(=O)C1OC1c1ccccc1)C(=O)NCCCCNC(=O)CCCCC1CCSS1 (stereo partly shown) [Compound 62],> 1 µM,–
"Cc1cc(C)c(-n2cc(CNC(=O)[C@H](Cc3cscn3)NC(=O)[C@H]3O[C@@H]3C(=O)O)nn2)c(C)c1 [Compound 58, (2S,3S)-3-((S)-1-((1-mesityl-1H-1,2,3-triazol-4-yl)methylamino)-1-oxo-3-(thiazol-4-yl)propan-2-ylcarbamoyl)oxirane-2-carboxylic acid]",> 1 µM,"Cal1 inhibition (in words) [1]: relatively high IC50 values; IC50 [2, 3]: > 1 µM"
CC(C)C[C@H](NC(=O)[C@H]1O[C@@H]1C(=O)O)C(=O)N(C)c1nc(-c2ccc(F)cc2)cs1 [Compound 72],0.2 µM,–

SMILES,IC50 [1],other results
CCOC(=O)[C@@H]1O[C@H]1C(N)=O [Compound 76],> 1 µM,–
CCOC(=O)[C@@H]1O[C@H]1C(=O)N[C@@H](CC(C)C)C(=O)Nc1c(F)cccc1F [Compound 80],> 1 µM,–
"O=C(NCc1cn(-c2c(F)cccc2F)nn1)[C@H](Cc1cscn1)NC(=O)[C@H]1O[C@@H]1C(=O)O [Compound 57, (2S,3S)-3-((S)-1-((1-(2,6-difluorophenyl)-1H-1,2,3-triazol-4-yl)methylamino)-1-oxo-3-(thiazol-4-yl)propan-2-ylcarbamoyl)oxirane-2-carboxylic acid]",> 1 µM,"Cal1 inhibition (in words) [1]: relatively high IC50 values; IC50 [2, 3]: > 1 µM"
O=C(O)[C@H]1O[C@@H]1C(=O)NCc1ccc(CO)cc1 [Compound 83],> 1 µM,–
CCOC(=O)[C@H]1OC1C(=O)N[C@@H](CC(C)C)C(=O)NCCCCNC(=O)CCCC[C@@H]1SC[C@@H]2NC(=O)N[C@@H]21 (stereo partly shown) [Compound 59],> 1 µM,–
CCOC(=O)[C@@H]1O[C@H]1C(=O)N[C@@H](CC(C)C)C(=O)Nc1nc(-c2ccc(F)cc2)cs1 [Compound 75],> 1 µM,–
"O=C(NCc1cn(-c2ccc(S(=O)(=O)N3CCCCC3)cc2)nn1)[C@H](Cc1cscn1)NC(=O)[C@H]1O[C@@H]1C(=O)O [Compound 51, (2S,3S)-3-((S)-1-oxo-1-((1-(4-(piperidin-1-ylsulfonyl)phenyl)-1H-1,2,3-triazol-4-yl)methylamino)-3-(thiazol-4-yl)propan-2-ylcarbamoyl)oxirane-2-carboxylic acid]",–,"IC50 [2, 3]: 1.5 µM"
CCOC(=O)[C@@H]1O[C@H]1C(=O)NCc1ccc(CO)cc1 [Compound 79],> 1 µM,–
"O=C(Nc1nc2ccc(F)cc2s1)[C@H](Cc1c[nH]cn1)NC(=O)[C@@H]1O[C@H]1C(=O)O [Compound 31b, (2R,3R)-3-((S)-1-(6-fluorobenzo[d]thiazol-2-ylamino)-3-(1H-imidazol-4-yl)-1-oxopropan-2-ylcarbamoyl)oxirane-2-carboxylic acid]",> 1 µM,"IC50 [2, 3]: > 1 µM"
"O=C(Nc1ccccc1)[C@H](Cc1cscn1)NC(=O)[C@H]1O[C@@H]1C(=O)O [Compound 32, (2S,3S)-3-((S)-1-oxo-1-(phenylamino)-3-(thiazol-4-yl)propan-2-ylcarbamoyl)oxirane-2-carboxylic acid]",–,"IC50 [2, 3]: 2.5 µM"
CCOC(=O)[C@H]1O[C@@H]1C(=O)N[C@@H](CC(C)C)C(=O)Nc1nc(-c2ccc(F)cc2)cs1 [Compound 70],> 1 µM,–
CC(C)C[C@H](NC(=O)[C@H]1O[C@@H]1C(=O)O)C(=O)NCc1cn(-c2ccc(S(N)(=O)=O)cc2)nn1 [Compound 87],0.05 µM,–
CC(C)C[C@H](NC(=O)C1OC1c1ccccc1)C(=O)NCCCCNC(=N)N (stereo partly shown) [Compound 65],> 1 µM,–
CC(C)NC(=O)[C@@H]1O[C@H]1C(=O)O [Compound 74],> 1 µM,–
CCOC(=O)[C@@H]1O[C@H]1C(=O)NC(C)C [Compound 73],> 1 µM,–
"Cc1cc(C)c(NC(=O)[C@H](Cc2cnc[nH]2)NC(=O)[C@H]2O[C@@H]2C(=O)O)c(C)c1 [Compound 29, (2S,3S)-3-((S)-3-(1H-imidazol-5-yl)-1-(mesitylamino)-1-oxopropan-2-ylcarbamoyl)oxirane-2-carboxylic acid]",5 µM,–
CCOC(=O)[C@H]1O[C@@H]1C(=O)N[C@@H](CC(C)C)C(=O)Nc1c(F)cccc1F [Compound 81],> 1 µM,–
C#CCNC(=O)[C@H](CC(C)C)NC(=O)C1OC1c1ccccc1 (stereo partly shown) [Compound 60],> 1 µM,–
CCOC(=O)[C@H]1O[C@@H]1C(=O)NC1(C(=O)NCCCCNS(=O)(=O)c2ccc(F)cc2)CCCCC1 [Compound 69],> 1 µM,–
"O=C(Nc1ccccc1)[C@H](Cc1cnc[nH]1)NC(=O)[C@H]1O[C@@H]1C(=O)O [Compound 28, (2S,3S)-3-((S)-3-(1H-imidazol-4-yl)-1-oxo-1-(phenylamino)propan-2-ylcarbamoyl)oxirane-2-carboxylic acid]",5 µM,–
